Experimental data from patent US7704995B2 (Exelixis, Inc., priority 2003, dated 2010).

Columns and labels:
Format in all cases: biochemical
Chk2 = biological target: T1, Chk2 (Homo sapiens, UniProt O96017); experiment: Chk2 kinase assay: incorporation of γ-33P ATP into immobilized myelin basic protein; settings: 20 nM Chk2, 30 μM unlabeled ATP, 1 hour at room temperature; read-out: Chk2 inhibition, IC50
T1 construct: purchased Upstate Biotechnology
Procedure: Chk1 and Chk2 assays were performed by measuring incorporation of γ-^33P ATP into immobilized myelin basic protein (MBP). High binding white 384 well plates (Greiner) were coated with MBP (Sigma #M-1891) by incubation of 60 ul/well of 20 μg/ml MBP in Tris-buffered saline (TBS; 50 mM Tris pH 8.0, 138 mM NaCl, 2.7 mM KCl) for 24 hours at 4° C. Plates were washed 3× with 100 μl TBS. Kinase reactions were carried out in a total volume of 34 μl in kinase buffer (5 mM Hepes pH 7.6, 15 mM NaCl, 0.01% bovine gamma globulin (Sigma #I-5506), 10 mM MgCl2, 1 mM DTT, 0.02% TritonX-100). Compound dilutions were performed in DMSO and added to assay wells to a final DMSO concentration of 1%. Each data point was measured in duplicate, and at least two duplicate assays were performed for each individual compound determination. […] A mixture of unlabeled ATP and γ-^33P ATP was added to start the reaction (2×10^6 cpm of γ-^33P ATP per well (3000 Ci/mmole) and either 10 μM or 30 μM unlabeled ATP (for Chk1 and Chk2 assays respectively). The reaction was carried out for 1 hour at room temperature with shaking. Plates were washed 7× with TBS, followed by the addition of 50 μl/well scintillation fluid (Wallac). Plates were read using a Wallac Trilux counter. This is only one format of such assays, various other formats are possible, as known to those skilled in the art. […]

CLK1 = CLK1 (Homo sapiens, UniProt P49759); experiment: Kinase specificity assay (33P phosphoryl transfer, LCCA or AlphaScreen); settings: ATP close to KM; read-out: CLK1 inhibition, IC50
CLK1, sequence (P49759 whole entry): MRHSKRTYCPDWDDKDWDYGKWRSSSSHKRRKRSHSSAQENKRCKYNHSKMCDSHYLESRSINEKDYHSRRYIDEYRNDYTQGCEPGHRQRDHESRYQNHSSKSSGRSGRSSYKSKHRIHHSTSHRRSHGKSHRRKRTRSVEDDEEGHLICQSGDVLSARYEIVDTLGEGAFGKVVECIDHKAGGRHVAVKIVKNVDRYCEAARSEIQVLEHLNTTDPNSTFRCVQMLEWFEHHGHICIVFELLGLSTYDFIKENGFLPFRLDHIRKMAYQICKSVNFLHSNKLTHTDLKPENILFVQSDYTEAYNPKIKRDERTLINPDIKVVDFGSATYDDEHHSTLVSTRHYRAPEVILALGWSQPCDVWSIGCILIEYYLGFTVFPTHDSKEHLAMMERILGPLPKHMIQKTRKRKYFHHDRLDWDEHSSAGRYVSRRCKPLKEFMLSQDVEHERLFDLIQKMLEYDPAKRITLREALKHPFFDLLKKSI

EMK = EMK (Homo sapiens, UniProt Q7KZI7); experiment: as above; settings: ATP close to KM; read-out: EMK inhibition, IC50
EMK, sequence (Q7KZI7 whole entry): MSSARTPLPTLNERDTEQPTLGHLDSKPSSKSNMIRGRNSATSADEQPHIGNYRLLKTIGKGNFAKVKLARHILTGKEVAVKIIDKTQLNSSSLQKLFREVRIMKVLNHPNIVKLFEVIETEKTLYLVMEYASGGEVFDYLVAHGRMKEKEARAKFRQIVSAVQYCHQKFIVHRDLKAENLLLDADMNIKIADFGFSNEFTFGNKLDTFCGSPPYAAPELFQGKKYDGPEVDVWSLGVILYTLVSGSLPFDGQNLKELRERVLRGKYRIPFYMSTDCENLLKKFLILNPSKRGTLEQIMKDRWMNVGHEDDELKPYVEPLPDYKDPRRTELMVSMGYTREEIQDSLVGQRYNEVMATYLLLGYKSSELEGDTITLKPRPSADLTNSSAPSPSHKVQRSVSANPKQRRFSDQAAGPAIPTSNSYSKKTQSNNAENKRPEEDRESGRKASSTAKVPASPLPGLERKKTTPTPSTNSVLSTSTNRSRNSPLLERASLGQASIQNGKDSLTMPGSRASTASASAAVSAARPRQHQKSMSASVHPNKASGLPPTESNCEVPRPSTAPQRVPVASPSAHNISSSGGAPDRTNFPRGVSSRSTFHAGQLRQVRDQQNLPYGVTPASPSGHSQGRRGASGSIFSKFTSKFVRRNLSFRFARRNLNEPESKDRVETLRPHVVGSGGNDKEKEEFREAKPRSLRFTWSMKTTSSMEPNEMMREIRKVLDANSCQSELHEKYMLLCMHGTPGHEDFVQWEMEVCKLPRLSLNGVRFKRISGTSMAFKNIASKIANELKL

EphA2R = EphA2R (Homo sapiens, UniProt P29317); experiment: as above; settings: ATP close to KM; read-out: EphA2R inhibition, IC50
EphA2R, sequence (P29317 24-976): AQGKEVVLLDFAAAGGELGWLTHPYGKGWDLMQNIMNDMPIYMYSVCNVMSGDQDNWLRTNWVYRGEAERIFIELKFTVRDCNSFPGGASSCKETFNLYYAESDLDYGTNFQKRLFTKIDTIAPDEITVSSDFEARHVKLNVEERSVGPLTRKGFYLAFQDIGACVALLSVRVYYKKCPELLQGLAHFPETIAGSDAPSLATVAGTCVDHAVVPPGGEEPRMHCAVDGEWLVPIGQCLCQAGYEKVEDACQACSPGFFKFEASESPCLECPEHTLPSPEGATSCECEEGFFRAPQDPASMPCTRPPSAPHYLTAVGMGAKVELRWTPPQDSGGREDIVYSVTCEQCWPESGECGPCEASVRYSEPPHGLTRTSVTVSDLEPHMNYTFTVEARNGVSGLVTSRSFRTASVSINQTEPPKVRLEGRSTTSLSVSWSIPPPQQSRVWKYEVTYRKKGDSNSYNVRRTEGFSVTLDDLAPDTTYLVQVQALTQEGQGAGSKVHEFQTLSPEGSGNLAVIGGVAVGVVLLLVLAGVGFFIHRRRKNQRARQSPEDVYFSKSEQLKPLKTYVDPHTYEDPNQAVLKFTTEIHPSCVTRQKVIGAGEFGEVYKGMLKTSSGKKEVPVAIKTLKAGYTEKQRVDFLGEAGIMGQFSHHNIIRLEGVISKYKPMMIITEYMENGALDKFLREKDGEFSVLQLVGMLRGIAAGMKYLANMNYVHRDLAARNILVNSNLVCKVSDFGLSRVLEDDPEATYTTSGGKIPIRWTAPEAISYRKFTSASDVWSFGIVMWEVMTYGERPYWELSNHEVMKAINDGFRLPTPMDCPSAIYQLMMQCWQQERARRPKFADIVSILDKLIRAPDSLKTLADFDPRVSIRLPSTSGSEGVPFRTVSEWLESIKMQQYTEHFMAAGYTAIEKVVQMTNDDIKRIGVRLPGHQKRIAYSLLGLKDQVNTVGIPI

Flt4 = Flt4 (Homo sapiens, UniProt P35916); experiment: as above; settings: ATP close to KM; read-out: Flt4 inhibition, IC50
Flt4, sequence (P35916 25-1363): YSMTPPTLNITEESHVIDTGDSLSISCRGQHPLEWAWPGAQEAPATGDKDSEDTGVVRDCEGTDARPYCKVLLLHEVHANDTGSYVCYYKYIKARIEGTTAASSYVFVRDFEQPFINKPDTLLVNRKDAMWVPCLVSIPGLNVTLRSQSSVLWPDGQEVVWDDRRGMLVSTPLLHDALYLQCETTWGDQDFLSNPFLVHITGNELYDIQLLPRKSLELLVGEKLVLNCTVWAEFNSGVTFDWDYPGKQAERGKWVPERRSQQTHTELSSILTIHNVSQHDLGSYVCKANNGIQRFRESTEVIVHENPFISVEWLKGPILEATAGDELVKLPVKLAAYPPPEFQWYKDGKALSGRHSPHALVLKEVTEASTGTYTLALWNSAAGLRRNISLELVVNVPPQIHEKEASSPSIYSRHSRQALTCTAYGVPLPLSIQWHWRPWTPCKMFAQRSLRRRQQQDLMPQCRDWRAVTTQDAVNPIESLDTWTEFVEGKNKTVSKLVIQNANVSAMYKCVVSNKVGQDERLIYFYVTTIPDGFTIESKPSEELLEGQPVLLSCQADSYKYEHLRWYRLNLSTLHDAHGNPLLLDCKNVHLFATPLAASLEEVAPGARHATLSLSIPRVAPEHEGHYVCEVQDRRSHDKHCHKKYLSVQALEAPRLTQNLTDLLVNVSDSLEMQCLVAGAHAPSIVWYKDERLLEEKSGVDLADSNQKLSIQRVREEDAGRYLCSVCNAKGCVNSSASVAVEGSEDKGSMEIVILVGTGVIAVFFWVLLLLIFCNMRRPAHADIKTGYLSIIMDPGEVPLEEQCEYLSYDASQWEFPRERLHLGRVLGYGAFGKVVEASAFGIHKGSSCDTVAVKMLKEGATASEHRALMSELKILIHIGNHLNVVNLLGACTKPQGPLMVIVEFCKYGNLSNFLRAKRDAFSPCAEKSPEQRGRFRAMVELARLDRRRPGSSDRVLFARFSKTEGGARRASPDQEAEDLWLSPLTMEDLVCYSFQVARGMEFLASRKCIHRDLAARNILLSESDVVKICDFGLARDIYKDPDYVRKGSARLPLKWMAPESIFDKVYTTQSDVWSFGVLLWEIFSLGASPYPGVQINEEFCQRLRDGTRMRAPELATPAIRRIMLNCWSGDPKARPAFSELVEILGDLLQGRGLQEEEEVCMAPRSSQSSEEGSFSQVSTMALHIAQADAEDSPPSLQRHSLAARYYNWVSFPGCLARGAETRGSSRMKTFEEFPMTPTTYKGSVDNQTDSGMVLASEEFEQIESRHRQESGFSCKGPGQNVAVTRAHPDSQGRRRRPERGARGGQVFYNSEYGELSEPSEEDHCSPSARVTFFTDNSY

T1 sequence (O96017 whole entry): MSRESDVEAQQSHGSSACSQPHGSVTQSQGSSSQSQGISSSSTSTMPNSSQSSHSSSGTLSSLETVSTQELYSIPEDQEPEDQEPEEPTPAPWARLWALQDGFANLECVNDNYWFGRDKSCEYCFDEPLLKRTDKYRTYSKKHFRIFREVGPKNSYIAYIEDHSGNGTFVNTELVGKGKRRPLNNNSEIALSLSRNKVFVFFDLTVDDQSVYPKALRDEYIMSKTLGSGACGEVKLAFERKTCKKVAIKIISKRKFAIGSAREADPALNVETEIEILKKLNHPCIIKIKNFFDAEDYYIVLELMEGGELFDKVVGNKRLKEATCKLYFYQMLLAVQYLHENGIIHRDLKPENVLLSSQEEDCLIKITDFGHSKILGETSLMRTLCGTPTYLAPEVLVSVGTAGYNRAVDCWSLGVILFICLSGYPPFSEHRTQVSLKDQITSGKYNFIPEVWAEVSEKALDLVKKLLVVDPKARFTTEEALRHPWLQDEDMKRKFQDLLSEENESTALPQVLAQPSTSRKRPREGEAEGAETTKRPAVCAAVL

NC(=O)c1nc(-c2cccc3ccccc23)cnc1N [Example 2, 3-Amino-6-naphthalen-1-ylpyrazine-2-carboxamide]
IC50 (Chk2): < 50 nM | IC50 (CLK1): 1000 to 10000 nM | IC50 (EMK): 1000 to 10000 nM | IC50 (EphA2R): ≥ 10000 nM | IC50 (Flt4): < 50 nM
